# According to patent publication US20200165312A1, “COSMETIC COMPOSITION FOR IMPROVING SKIN CONDITIONS COMPRISING FUSION PROTEIN INCLUDING SKIN PENETRATION ENHANCING PEPTIDE” (LG HOUSEHOLD & HEALTH CARE LTD., priority 2017, published 2020):
# Where a SMILES comes first, the peptide text is derived from it. Where no end group is shown, it is not given here. The star is where a group is joined. Palmitoyl = CCCCCCCCCCCCCCCC(=O)*
# What was measured:
# [1] = 2 μg in donor chamber, 16 hours, amount in receiver chamber relative to control peptide
# [2] = amount present in the porcine skin by HPLC, relative to control peptide
# C2C12 cells = assay: Inhibition of muscle contraction: contractions of C2C12 cells co-cultured with neuroblasts; type: cell-based; details: 50 ppm, 2 hours, medium without FBS, counted for 30 seconds; FIG. 1
# Protocol: Then, the number of contractions of the C2C12 cells was measured for 30 second at the initial stage of cell contraction and all of the medium was removed, followed by washing three times with PBS. The cells were reacted for 2 hours in a medium supplemented with 50 ppm of the fusion peptide without the FBS. Then, the number of contractions of the C2C12 cells was measured for 30 seconds to identify the degree of inhibiting muscle contraction.
# dermal fibroblasts = assay: Hyaluronic acid (HA) production in dermal fibroblasts (ELISA); type: cell-based, human; details: 10 ng/mL T-VEGF or VEGF, two days; control = 100
# Protocol: (§1) Specifically, dermal fibroblasts were inoculated onto a 24-well plate and cultured for 24 hours to obtain cultures having a saturation degree of 70 to 80%. The cultures were washed with PBS and cultured in a serum-free DMEM medium including 10 ng/mL T-PDGFa or PDGFa for two days. A supernatant was obtained therefrom and the amount of hyaluronic acid (HA) produced and released in the culture solution was quantitively analyzed using an ELISA kit (R&D Systems) (Table 5).
# as §1, with “The cultures were washed with PBS and cultured in a serum-free DMEM medium including 10 ng/mL T-PDGFa or PDGFa for two days.” left out, “9).” for “5).”
# dermal papilla cells = assay: Hair follicle stem cell proliferation: dermal papilla cells, Cell Counter Kit-8; type: cell-based; details: 1 ng/mL T-VEGF or VEGF, one day; control = 100
# Protocol: (§2) Specifically, dermal papilla cells were inoculated onto a 96-well plate and cultured for 24 hours to obtain cultures at a density of 6,000 cells per well. The cultures were washed with PBS and cultured in a serum-free DMEM medium for one day. The cells were washed with PBS again and cultured in a serum-free DMEM medium supplemented with 1 ng/mL T-PDGFa or PDGFa for one day. The cultures were obtained therefrom and a difference between proliferated amounts of cells was quantitively analyzed using the Cell Counter Kit-8 (Dojindo). Here, dermal papilla cells cultured in a serum-free DMEM medium without T-PDGFa or PDGFa were used as a control (Table 6).
# (§3) Specifically, dermal papilla cells were inoculated onto a 96-well plate and cultured for 24 hours to obtain cultures at a density of 6,000 cells per well. The cultures were washed with PBS and cultured in a serum-free DMEM medium for one day. […] The cultures were obtained therefrom and a difference between proliferated amounts of cells was quantitively analyzed using the Cell Counter Kit-8 (Dojindo).
# as §2, with “T-IGF-1” for “T-PDGFa”, “IGF-1” for “PDGFa”, “15).” for “6).”
# as §2, with “10” for “1”, “T-KGF” for “T-PDGFa”, “KGF” for “PDGFa”, “19).” for “6).”
# as §2, with “10” for “1”, “T-Tβ4” for “T-PDGFa”, “Tβ4” for “PDGFa”, “23).” for “6).”
# [3] = tested on: human umbilical vein endothelial cells; assay: Endothelial cell proliferation, Cell Counter Kit-8; type: cell-based; details: 100 ng/mL T-VEGF or VEGF, serum-free M199, one day; control = 100
# Protocol: as §3, with “human umbilical vein endothelial” for “dermal papilla”, “5,000” for “6,000”, “M199” for “DMEM”, “16 hours.” for “one day.”
# Specifically, human umbilical vein endothelial cells were inoculated onto a 96-well plate and cultured for 24 hours to obtain cultures at a density of 5,000 cells per well. The cultures were washed with PBS and cultured in a serum-free M199 medium for 16 hours. The cells were washed with PBS again and cultured in a serum-free M199 medium supplemented with 100 ng/mL T-Tβ4 or Tβ4 for one day. The cultures were obtained therefrom and a difference between proliferated amounts of cells was quantitively analyzed using the Cell Counter Kit-8 (Dojindo). Here, human umbilical vein endothelial cells cultured in a serum-free M199 medium without T-Tβ4 or Tβ4 were used as a control (Table 22).
compound,measurement,setting,value
CCCCCCCCCCCCCCCC(=O)N[C@@H](Cc1ccc(O)cc1)C(=O)N1CCC[C@H]1C(=O)N[C@@H](Cc1c[nH]c2ccccc12)C(=O)N[C@H](C(=O)N[C@@H](CCC(N)=O)C(=O)N[C@@H](CCCNC(=N)N)C(=O)N[C@@H](Cc1ccccc1)C(=O)N[C@@H](CC(N)=O)C(=O)NCC(=O)N[C@@H](CO)C(=O)N[C@@H](CC(C)C)C(=O)N[C@@H](CC(N)=O)C(=O)N[C@H](C(=O)N[C@@H](Cc1c[nH]cn1)C(=O)N[C@@H](CC(C)C)C(=O)N[C@@H](C)C(=O)N1CCC[C@H]1C(=O)N[C@H](C(=O)N[C@@H](CC(C)C)C(=O)O)[C@@H](C)CC)[C@@H](C)O)[C@@H](C)O [Fusion protein including [Pal]YPWTQRF] (Palmitoyl-YPWTQRFNGSLNTHLAPIL-OH),Penetration enhancement (%),[1],280 ± 15%
same,Relative penetration (%),[2],6290 ± 1350%
"Acetyl-Glu-Glu-Met-Gln-Arg-Arg (Ac-EEMQRR) [Argireline ™, neurotransmitter release regulating peptide used as control peptide]",number of contractions of the C2C12 cells,C2C12 cells,reduced
VEGF,Production (%) of hyaluronic acid (HA),dermal fibroblasts,220 ± 20%
same,Proliferation (%),dermal papilla cells,340 ± 50%
same,Proliferation (%),[3],170 ± 10%
